In ChEMBL document CHEMBL1201862, “PubChem BioAssay data set” (2004):
Active and inactive are the calls of the source.

Columns and labels:
Protein RecA = molecular target: T1, Protein RecA (Mycobacterium tuberculosis, UniProt P9WHJ3); assay: Fluorescence Cell-Free Homogeneous Dose Retest to Identify Inhibitors of RecA-Intein Splicing Activity. [Related pubchem assays (depositor defined):AID2097, AID2223, AID489010, AID492950]; assay type: functional
T1 sequence (P9WHJ3 whole entry): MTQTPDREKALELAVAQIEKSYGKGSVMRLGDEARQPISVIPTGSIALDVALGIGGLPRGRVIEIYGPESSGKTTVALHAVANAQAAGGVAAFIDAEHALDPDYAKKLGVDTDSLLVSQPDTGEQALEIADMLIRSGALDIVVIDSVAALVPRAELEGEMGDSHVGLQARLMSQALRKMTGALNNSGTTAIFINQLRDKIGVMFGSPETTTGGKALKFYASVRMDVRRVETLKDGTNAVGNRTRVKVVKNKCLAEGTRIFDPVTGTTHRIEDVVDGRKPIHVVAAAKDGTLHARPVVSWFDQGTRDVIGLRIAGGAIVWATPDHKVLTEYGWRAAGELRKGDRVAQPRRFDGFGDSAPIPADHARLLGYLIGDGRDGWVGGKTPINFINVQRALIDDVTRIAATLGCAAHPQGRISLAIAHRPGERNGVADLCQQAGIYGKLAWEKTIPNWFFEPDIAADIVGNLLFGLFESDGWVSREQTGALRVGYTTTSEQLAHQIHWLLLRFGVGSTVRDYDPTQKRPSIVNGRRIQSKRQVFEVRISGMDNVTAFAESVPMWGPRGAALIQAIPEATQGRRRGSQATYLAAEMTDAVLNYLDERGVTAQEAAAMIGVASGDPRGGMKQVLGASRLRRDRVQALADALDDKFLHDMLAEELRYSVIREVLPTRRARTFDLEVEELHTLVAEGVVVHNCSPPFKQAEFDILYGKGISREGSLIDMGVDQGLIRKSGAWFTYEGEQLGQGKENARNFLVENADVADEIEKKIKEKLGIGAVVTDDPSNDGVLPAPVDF

[1] = non-specific 3'UTR reporter inhibition in Clone20-Shn3RL – cell-based, Renilla luciferase, cherry-picked, counter-screen for Shn3 inhibitor project, dose response (AID 624133); assay type: functional
Melanocortin receptor 4 = Melanocortin receptor 4 (Homo sapiens, UniProt P32245); assay: inhibitors of MC4R cAMP signaling – cell-based, TR-FRET, biased antagonists, dose response (AID 602298); assay type: functional;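 note: antagonist potency against agonist-stimulated cAMP production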
Chain of Melanocortin receptor 4 (P32245 whole entry): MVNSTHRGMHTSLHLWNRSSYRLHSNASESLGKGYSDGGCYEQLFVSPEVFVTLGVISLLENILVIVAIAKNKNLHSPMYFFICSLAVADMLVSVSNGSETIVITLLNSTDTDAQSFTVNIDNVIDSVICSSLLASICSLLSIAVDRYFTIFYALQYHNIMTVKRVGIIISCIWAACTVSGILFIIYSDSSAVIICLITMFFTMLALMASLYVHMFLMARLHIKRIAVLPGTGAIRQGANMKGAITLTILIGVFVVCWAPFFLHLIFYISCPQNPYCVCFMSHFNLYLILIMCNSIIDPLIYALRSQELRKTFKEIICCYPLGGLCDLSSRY

[2] = viability of HCT116 lacking mutant beta-catenin – cell-based, human colon tumor, dose response (AID 1045); assay type: functional;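 note: HCT116 colon tumor cells with beta catenin knocked out; cells exposed to compound for 60 hours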
[3] = HIV-1 Vif–A3G interaction blockers – biochemical, TR-FRET, GST-Vif 1-94, biotin-A3G peptide, dose response retest, primary screen (AID 1117319); assay type: functional;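 note: TR-FRET signal of purified GST-Vif binding a biotinylated A3G peptide; inhibitors lower the FRET signal by blocking Vif and A3G binding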
[4] = reduction of Shn3 3'UTR-driven luciferase in osteoblasts – cell-based, Clone20 osteoblasts, firefly luciferase, cherry-picked, dose response (AID 624132); assay type: functional;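 note: firefly luciferase luminescence from reporter carrying the Shn3 3'UTR in osteoblasts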
[5] = HEK-293T viability loss, compound-treated – cell-based, uHTS hits, cytotoxicity control for B/T-cell NF-kB inhibitor project, dose response (AID 489019); assay type: functional;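 note: IC50 reflects cytotoxicity as loss of cell viability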
[6] = viability loss in Vero cells – cytotoxicity control for Vif-APOBEC3G degradation inhibitor project, dose response (AID 1117358); assay type: functional; settings: Vero
Jurkat = assay: blockers of NF-kB activation in T cells – Jurkat, luciferase reporter, luminescence, B- and T-cell, dose response (AID 489004); assay type: functional, cell-based; settings: Homo sapiens;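 note: NF-kB luciferase reporter Jurkat cells stimulated with PMA plus ionomycin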
[7] = molecular target: T2, Replicative DNA helicase DnaB (Mycobacterium tuberculosis, UniProt P9WMR3); assay: DnaB intein splicing inhibitors, dose response, biochemical, cell-free fluorescence (AID 449749); assay type: functional
T2 sequence (P9WMR3 whole entry): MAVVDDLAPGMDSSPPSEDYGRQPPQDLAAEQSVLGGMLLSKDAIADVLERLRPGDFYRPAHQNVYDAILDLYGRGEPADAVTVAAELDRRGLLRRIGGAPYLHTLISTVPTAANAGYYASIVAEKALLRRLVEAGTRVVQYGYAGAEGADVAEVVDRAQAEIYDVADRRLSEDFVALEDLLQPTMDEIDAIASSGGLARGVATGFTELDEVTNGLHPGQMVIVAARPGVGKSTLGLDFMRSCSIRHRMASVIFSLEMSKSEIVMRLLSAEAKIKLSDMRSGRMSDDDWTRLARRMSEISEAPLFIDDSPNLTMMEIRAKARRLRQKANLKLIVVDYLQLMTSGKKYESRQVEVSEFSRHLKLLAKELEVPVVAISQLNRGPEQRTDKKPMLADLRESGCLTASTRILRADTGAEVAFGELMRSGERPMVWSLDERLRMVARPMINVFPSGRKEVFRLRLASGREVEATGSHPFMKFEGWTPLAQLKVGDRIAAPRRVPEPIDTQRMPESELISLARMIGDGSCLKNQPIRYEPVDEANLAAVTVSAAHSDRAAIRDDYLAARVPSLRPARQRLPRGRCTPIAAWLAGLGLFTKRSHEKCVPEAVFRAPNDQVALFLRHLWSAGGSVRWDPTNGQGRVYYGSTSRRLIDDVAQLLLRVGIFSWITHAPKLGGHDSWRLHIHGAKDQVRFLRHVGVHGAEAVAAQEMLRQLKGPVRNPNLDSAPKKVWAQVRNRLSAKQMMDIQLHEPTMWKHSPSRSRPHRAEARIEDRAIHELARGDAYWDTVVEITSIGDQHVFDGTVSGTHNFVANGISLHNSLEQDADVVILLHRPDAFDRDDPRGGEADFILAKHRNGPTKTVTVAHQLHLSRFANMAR

[8] = Luminescence-based dose response cell-based high throughput screening assay for cytotoxic compounds using the IEC-6 intestinal epithelial cell line. [Related pubchem assays: 1858 (Summary AID.), 1825 (Counterscreen.), 1907 (Confirmation screen.)]; assay type: functional
[9] = cAMP pathway inhibition in counterscreen cell line – TR-FRET cAMP detection, counter-screen for MC4R biased antagonist project, dose response (AID 602305); assay type: functional, cell-based;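 note: U2OS cells stimulated with forskolin near its EC80 as the cAMP inducer; potency is for inhibition of forskolin-stimulated cAMP signaling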
[10] = loss of viability in HepG2 cells – cell-based, CellTiter-Glo, cherry-picked, cytotoxicity control for Shn3 inhibitor project, dose response (AID 624134); assay type: functional
[11] = viability of PTEN-deleted HCT116 cells – cell-based, HCT116 PTEN knockout, dose response (AID 1047); assay type: functional;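 note: HCT116 colon tumor cells with PTEN knocked out; cells exposed to compound for 60 hours before readout; potency for loss of cell viability measured by luminescence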
[12] = molecular target: T3, Heat shock factor protein 1 (Mus musculus, UniProt P38532); assay: decrease of HSF1-responsive luciferase luminescence – cell-based, NIH3T3, dose retest, confirmation (AID 2382); assay type: functional;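 note: NIH3T3 fibroblasts with HSF1-driven luciferase reporter stressed by proteasome inhibitor MG132; luminescence from HSF1-driven luciferase expression after 8 hours of MG132 stress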
T3 sequence (P38532 whole entry): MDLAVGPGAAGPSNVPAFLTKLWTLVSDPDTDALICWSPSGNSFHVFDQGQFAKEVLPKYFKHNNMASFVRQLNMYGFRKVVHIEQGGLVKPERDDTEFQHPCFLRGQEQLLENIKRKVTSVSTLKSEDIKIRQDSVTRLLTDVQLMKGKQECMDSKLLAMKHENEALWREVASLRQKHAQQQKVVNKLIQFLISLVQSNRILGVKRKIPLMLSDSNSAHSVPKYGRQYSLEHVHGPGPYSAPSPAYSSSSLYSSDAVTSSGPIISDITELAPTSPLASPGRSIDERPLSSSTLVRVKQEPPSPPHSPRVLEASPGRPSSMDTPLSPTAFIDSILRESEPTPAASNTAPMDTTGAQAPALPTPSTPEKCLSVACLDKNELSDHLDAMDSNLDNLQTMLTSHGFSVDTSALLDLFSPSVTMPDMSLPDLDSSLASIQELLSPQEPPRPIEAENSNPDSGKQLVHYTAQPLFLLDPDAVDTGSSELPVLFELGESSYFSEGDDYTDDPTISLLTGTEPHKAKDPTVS

SUMO E1/E2 = SUMO E1/E2 (Homo sapiens, UniProt P63279+Q9UBE0+Q9UBT2); assay: SAR analysis of SUMOylation using HTRF in an in-Vitro dose response assay. [Related pubchem assays (depositor defined):AID2006, AID2011, AID2018, AID2069, AID2658]; assay type: functional
Chain of SUMO E1/E2 (Q9UBE0 whole entry): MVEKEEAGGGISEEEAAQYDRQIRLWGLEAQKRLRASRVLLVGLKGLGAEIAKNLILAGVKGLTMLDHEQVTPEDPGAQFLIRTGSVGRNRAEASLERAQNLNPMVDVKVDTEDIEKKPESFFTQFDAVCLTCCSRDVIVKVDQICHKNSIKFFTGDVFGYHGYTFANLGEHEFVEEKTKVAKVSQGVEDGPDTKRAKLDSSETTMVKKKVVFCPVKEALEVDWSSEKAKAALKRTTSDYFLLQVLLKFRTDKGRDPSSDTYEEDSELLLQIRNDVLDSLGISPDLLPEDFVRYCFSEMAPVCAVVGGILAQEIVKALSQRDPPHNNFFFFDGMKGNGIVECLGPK
Chain of SUMO E1/E2 (Q9UBT2 whole entry): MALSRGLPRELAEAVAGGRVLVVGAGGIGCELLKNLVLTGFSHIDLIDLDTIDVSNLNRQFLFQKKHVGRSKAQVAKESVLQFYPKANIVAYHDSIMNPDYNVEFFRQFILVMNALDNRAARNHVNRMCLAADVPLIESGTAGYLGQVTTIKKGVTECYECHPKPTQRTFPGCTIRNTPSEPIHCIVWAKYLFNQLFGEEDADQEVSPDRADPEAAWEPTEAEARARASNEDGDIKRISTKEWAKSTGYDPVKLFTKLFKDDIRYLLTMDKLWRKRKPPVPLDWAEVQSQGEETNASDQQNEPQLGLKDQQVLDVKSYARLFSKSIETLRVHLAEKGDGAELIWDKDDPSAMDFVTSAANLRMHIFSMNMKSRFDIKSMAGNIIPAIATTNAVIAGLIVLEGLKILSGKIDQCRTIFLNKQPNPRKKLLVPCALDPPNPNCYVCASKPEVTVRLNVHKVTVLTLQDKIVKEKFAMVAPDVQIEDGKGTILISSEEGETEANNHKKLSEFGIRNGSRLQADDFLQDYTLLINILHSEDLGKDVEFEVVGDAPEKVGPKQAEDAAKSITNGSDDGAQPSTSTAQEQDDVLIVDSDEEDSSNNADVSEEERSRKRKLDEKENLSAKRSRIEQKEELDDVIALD
Chain of SUMO E1/E2 (P63279 whole entry): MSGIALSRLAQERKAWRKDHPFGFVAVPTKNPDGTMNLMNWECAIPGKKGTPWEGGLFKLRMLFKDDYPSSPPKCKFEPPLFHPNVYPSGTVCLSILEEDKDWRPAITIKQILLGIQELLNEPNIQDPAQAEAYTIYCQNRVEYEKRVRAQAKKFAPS

[13] = molecular target: T4, Voltage-gated N-type calcium channel alpha-1B subunit/Amyloid beta A4 precursor protein-binding family A member 1 (Homo sapiens, UniProt Q00975+Q02410); assay: disruptors of Mint-PDZ/N-type channel peptide interaction – biochemical, HTRF, SAR follow-up (AID 2489); assay type: functional
T4 sequence (Q00975 whole entry): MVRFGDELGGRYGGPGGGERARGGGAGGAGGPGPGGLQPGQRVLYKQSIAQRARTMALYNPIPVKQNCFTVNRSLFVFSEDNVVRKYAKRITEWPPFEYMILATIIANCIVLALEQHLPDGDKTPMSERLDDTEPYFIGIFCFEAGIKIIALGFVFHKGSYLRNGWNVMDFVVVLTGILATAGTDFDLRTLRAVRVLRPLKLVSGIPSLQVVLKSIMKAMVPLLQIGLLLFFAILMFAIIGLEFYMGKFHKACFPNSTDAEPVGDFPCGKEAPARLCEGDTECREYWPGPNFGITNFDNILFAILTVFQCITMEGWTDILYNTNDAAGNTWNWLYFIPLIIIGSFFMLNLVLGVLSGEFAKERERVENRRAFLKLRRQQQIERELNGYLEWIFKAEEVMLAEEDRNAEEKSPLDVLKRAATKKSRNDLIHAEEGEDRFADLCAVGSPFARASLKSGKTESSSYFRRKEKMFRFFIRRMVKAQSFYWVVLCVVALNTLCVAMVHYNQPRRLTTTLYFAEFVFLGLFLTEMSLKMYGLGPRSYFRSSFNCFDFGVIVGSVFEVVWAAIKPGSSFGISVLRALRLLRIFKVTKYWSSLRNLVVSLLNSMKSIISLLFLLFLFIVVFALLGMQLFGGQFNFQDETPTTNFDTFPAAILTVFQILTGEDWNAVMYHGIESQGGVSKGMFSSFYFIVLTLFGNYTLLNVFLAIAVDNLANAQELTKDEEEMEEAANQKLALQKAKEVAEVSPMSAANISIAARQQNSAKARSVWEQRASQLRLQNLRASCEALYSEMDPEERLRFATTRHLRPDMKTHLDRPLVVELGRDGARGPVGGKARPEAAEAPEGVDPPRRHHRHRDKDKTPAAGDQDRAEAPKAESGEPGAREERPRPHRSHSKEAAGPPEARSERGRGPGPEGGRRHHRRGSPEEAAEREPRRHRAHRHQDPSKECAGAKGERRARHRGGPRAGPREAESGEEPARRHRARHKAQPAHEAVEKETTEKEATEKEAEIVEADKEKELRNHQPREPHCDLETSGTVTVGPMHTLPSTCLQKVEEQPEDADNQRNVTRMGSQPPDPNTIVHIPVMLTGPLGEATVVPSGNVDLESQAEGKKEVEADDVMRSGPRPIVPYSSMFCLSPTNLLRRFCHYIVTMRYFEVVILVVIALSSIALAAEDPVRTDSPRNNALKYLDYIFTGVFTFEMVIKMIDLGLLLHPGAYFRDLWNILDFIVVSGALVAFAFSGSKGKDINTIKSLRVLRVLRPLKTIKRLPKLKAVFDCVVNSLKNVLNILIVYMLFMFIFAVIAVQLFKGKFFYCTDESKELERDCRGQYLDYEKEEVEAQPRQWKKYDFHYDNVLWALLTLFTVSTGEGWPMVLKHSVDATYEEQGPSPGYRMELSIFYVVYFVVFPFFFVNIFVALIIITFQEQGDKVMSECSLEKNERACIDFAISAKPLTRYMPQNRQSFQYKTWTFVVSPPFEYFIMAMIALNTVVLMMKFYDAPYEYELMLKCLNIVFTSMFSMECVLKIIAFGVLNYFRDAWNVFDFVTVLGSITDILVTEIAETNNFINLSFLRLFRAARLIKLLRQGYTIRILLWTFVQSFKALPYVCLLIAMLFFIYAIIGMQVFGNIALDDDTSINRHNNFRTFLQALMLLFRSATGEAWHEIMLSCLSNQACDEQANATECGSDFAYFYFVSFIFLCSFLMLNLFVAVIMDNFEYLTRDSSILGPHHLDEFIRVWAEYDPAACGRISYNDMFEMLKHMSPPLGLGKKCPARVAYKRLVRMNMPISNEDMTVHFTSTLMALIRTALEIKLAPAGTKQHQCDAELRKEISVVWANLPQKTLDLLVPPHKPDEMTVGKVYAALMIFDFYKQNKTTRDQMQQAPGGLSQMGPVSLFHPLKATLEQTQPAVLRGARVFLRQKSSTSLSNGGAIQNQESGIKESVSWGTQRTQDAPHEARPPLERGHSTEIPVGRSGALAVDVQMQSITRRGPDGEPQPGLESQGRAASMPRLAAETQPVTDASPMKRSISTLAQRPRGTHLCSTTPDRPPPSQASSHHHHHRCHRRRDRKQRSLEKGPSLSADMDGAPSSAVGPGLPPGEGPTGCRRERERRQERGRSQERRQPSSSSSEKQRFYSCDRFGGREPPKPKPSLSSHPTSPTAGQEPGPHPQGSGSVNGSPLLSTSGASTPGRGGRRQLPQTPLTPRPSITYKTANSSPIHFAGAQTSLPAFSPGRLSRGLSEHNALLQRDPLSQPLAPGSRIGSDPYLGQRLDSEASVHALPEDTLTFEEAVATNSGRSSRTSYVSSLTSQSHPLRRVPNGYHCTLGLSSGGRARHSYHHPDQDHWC
T4 sequence (Q02410 whole entry): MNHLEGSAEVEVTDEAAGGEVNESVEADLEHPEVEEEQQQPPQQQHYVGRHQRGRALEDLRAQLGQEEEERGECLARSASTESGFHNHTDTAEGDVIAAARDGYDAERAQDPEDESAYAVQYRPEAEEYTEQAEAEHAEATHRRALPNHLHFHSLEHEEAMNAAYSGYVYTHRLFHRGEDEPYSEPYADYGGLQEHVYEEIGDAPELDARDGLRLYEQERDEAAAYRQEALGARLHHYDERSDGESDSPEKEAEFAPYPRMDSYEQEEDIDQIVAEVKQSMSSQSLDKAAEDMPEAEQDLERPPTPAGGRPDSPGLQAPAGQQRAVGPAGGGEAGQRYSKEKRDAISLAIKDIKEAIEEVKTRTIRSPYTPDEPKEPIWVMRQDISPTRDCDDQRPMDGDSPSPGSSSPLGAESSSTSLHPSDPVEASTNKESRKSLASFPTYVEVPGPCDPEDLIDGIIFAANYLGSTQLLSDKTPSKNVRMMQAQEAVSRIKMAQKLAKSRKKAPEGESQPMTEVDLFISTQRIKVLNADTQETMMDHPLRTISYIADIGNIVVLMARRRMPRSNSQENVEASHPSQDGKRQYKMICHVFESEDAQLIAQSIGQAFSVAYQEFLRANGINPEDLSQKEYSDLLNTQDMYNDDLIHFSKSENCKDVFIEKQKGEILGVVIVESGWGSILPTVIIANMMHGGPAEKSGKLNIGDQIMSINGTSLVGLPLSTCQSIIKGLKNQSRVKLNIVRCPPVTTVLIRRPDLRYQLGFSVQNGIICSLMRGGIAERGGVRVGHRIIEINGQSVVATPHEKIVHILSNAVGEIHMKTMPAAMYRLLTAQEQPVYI

[14] = molecular target: T4, Voltage-gated N-type calcium channel alpha-1B subunit/Amyloid beta A4 precursor protein-binding family A member 1; assay: disruptors of Mint-PDZ/N-type channel peptide interaction – biochemical, HTRF, set 2, SAR follow-up (AID 434980); assay type: functional
[15] = molecular target: 5-hydroxytryptamine receptor 5A (Homo sapiens, UniProt P47898); assay: Counterscreen for agonists of OPRM1-OPRD1 heterodimerization: luminescence-based cell-based high throughput dose response assay to identify agonists of 5-hydroxytryptamine (serotonin) 5A receptor (HTR5A). [Related pubchem assays (depositor defined):AID504326, AID504355, AID504692, AID504904, AID504905]; assay type: functional
Chain of 5-hydroxytryptamine receptor 5A (P47898 whole entry): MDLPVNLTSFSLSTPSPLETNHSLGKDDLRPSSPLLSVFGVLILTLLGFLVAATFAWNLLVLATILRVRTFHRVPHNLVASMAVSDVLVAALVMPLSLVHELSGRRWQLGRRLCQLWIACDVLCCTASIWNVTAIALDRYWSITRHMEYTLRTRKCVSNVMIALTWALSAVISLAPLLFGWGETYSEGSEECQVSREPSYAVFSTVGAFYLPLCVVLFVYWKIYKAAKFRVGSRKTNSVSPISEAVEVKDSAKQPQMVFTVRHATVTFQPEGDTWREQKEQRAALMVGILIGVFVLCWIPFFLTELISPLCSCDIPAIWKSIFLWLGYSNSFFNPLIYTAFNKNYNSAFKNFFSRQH

H4 [16] = assay: inhibitors of control reporter signal in H4 cells – cell-based, plate reader, dry powder samples, counter-screen for prion reporter project, dose response (AID 540255); assay type: functional; settings: Homo sapiens
H4 [17] = assay: Inhibitors of Prion Protein 5' UTR mRNA Measured in Cell-Based System Using Plate Reader - 2078-01_Inhibitor_Dose_DryPowder_Activity. [Related pubchem assays (depositor defined):AID488894]; assay type: functional; settings: Homo sapiens
INS1 [18] = assay: suppression of NO production in INS-1E cells – cell-based, Griess absorbance, dry powder, dose response (AID 488866); assay type: functional; settings: Rattus norvegicus
[19] = Luminescence Cell-Based Dose Retest to Confirm Inhibitors of Cancer Stem Cells. [Related pubchem assays (depositor defined):AID2717, AID2721]; assay type: functional; settings: Homo sapiens
INS1 [20] = assay: INS-1E survival protection against cytokine death – cell-based, luminescence, retest, dose response (AID 449756); assay type: functional; settings: Rattus norvegicus;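 note: cell death triggered by IL-1 beta plus TNF-alpha plus IFN-gamma mixture; protective hits raise ATP signal compared with cytokine alone wells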
[21] = viability loss of HMLE_sh_eGFP cells – cell-based, luminescence, counter-screen for HMLE_sh_ECad selective toxicity project, dose response (AID 463074); assay type: functional, Homo sapiens;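 note: HMLE human mammary epithelial cells expressing control shRNA against eGFP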

With `C#CC(=O)N(c1cc(OC)ccc1OC)C(C(=O)NC1CCCC1)c1cccs1` (stereo unspecified) as the compound, how does the EC50 (Protein RecA) read?
The EC50 was 2.46 µM (active).

What about the AC50 [1] of the same compound?
Its AC50 is 0.563 µM (active).

What about the IC50 (Melanocortin receptor 4) of the same compound?
The IC50 was > 64.6 µM (inactive).

And the EC50 [2]?
Its EC50 is 3.99 µM (active).

And the IC50 [3]?
Its IC50 is > 100 µM (active).

And the AC50 [4]?
Its AC50 is 4.57 µM (active).

What about the IC50 [5] of the same compound?
Its IC50 is 55.6 µM (inactive).

And the CC50 [6]?
The CC50 was 0.087 µM (active).

What about the IC50 (Jurkat) of the same compound?
Its IC50 is 0.23 µM (active).

And the AC50 [7]?
The AC50 was 1.94 µM (active).

What about the IC50 [8] of the same compound?
Its IC50 is 0.096 µM (active).

What about the IC50 [9] of the same compound?
Its IC50 is > 64.6 µM (inactive).

And the AC50 [10]?
Its AC50 is 1.25 µM (active).

What about the EC50 [11] of the same compound?
The EC50 was 4.13 µM (active).

And the EC50 [12]?
The EC50 was 0.692 µM (active).

Which IC50 (SUMO E1/E2) does the source give for `Cc1ccccc1CNC(=O)COC(=O)c1cc(-c2ccco2)nc2ccccc12` here?
The IC50 was 3.83 µM (active).

And the IC50 [13]?
Its IC50 is 20.2 µM (active).

And the IC50 [14]?
Its IC50 is 10.9 µM (active).

Which EC50 [15] does the source give for `C=CCN1C[C@@H](C)N(C(c2ccc(C(=O)N(CC)CC)cc2)c2cccc(OC)c2)C[C@@H]1C` (stereo partly specified) here?
Its EC50 is > 92.5 µM (inactive).

With `CCCCc1ccc(-n2nc3cc(Cl)c(C(=O)NC(C)(C)C)cc3n2)cc1` as the compound, how does the AC50 (H4 [16]) read?
The AC50 was < 0.02 µM (active).

What about the AC50 (H4 [17]) of the same compound?
Its AC50 is 0.032 µM (active).

Which AC50 (INS1 [18]) does the source give for `COc1ccc(S(=O)(=O)N(C)C[C@@H]2Oc3c(NC(=O)Nc4ccccc4-c4ccccc4)cccc3C(=O)N([C@@H](C)CO)C[C@H]2C)cc1` here?
The AC50 was 33.4 µM (active).

For `Cc1oc(/N=C/c2ccccc2)c(C#N)c1C`, which AC50 [19] is on record?
Its AC50 is > 195 µM (inactive).

And the AC50 (INS1 [20])?
Its AC50 is > 260 µM (inactive).

What about the AC50 [21] of the same compound?
Its AC50 is 33.8 µM (active).

And the EC50 [12]?
Its EC50 is > 195 µM (not active).
